Assay results published in PubChem BioAssay AID248 (DTP/NCI, 2004).
Values joined by “and” are separate entries in the source; they are usually repeats but may differ in a detail not shown here. Identical values can stand only once. Inconclusive results and toxic doses are left out. Rule as the data show it: active = T/C of 150% or more; inactive = T/C below 125%.

Tested on: L1210 leukemia ip in BDF1 mice, survival T/C
Test: NCI In Vivo Anticancer Drug Screen. Data for tumor model L1210 Leukemia (intraperitoneal) in B6D2F1 (BDF1) mice
Settings: endpoint: mean survival time, higher = longer survival
In short: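 Antitumor effect is assessed in tumor-bearing animals. Survival in the compound arm is compared with a vehicle-dosed control arm and expressed as their quotient.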

[1] = dose: 100.0 mg/kg/injection, schedule: Q04DX003 (ip), vehicle: saline with Tween-80
[2] = dose: 200.0 mg/kg/injection, schedule: Q04DX003 (ip), vehicle: saline with Tween-80
[3] = dose: 400.0 mg/kg/injection, schedule: Q04DX003 (ip), vehicle: saline with Tween-80
[4] = dose: 100.0 mg/kg/injection, schedule: Q01DX001 (ip), vehicle: saline
[5] = dose: 200.0 mg/kg/injection, schedule: Q01DX001 (ip), vehicle: saline
[6] = dose: 400.0 mg/kg/injection, schedule: Q01DX001 (ip), vehicle: saline
[7] = dose: 50.0 mg/kg/injection, schedule: Q01DX009 (ip), vehicle: saline with Tween-80
[8] = dose: 100.0 mg/kg/injection, schedule: Q01DX009 (ip), vehicle: saline with Tween-80
[9] = dose: 100.0 mg/kg/injection, schedule: Q04DX003 (ip), vehicle: saline
[10] = dose: 200.0 mg/kg/injection, schedule: Q04DX003 (ip), vehicle: saline
[11] = dose: 100.0 mg/kg/injection, schedule: Q01DX009 (ip), vehicle: saline
[12] = dose: 400.0 mg/kg/injection, schedule: Q04DX003 (ip), vehicle: saline
[13] = dose: 200.0 mg/kg/injection, schedule: Q01DX009 (ip), vehicle: saline
[14] = dose: 400.0 mg/kg/injection, schedule: Q01DX009 (ip), vehicle: saline
[15] = dose: 200.0 mg/kg/injection, schedule: Q01DX009 (ip), vehicle: saline with Tween-80
[16] = dose: 100.0 mg/kg/injection, schedule: Q01DX001 (ip), vehicle: carboxymethylcellulose (CMC)
[17] = dose: 200.0 mg/kg/injection, schedule: Q01DX001 (ip), vehicle: carboxymethylcellulose (CMC)
[18] = dose: 400.0 mg/kg/injection, schedule: Q01DX001 (ip), vehicle: carboxymethylcellulose (CMC)

Measured: T/C

Cc1c(Cl)c(Cl)c(Cl)c(Cl)c1Cl
inactive: [1] 101 % of control | [2] 95 % of control | [3] 95 % of control

ClB(Cl)c1ccc(Br)cc1
inactive: [4] 97 % of control | [5] 86 % of control | [6] 95 % of control

CC(C)=NNC(=O)c1ccccc1
inactive: dose: 12.5 mg/kg/injection, schedule: Q04DX003 (ip), vehicle: saline with Tween-80 94 % of control | [7] 110 % of control | dose: 50.0 mg/kg/injection, schedule: Q04DX003 (ip), vehicle: saline with Tween-80 96 % of control | [8] 113 % of control | [1] 108 % of control and 110 % of control | [2] 124 % of control | [3] 96 % of control

COC(=O)/C=C\C(=O)O
inactive: [9] 88 % of control | [10] 88 % of control

COc1cc(NS(=O)(=O)c2ccccc2)ccc1C
inactive: dose: 100.0 mg/kg/injection, schedule: Q01DX009 (ip), vehicle: Klucel (hydroxypropylcellulose) (HPC) 92 % of control | dose: 100.0 mg/kg/injection, schedule: Q04DX003 (ip), vehicle: Klucel (hydroxypropylcellulose) (HPC) 97 % of control | dose: 200.0 mg/kg/injection, schedule: Q01DX009 (ip), vehicle: Klucel (hydroxypropylcellulose) (HPC) 91 % of control | dose: 200.0 mg/kg/injection, schedule: Q04DX003 (ip), vehicle: Klucel (hydroxypropylcellulose) (HPC) 90 % of control | dose: 400.0 mg/kg/injection, schedule: Q01DX009 (ip), vehicle: Klucel (hydroxypropylcellulose) (HPC) 91 % of control | dose: 400.0 mg/kg/injection, schedule: Q04DX003 (ip), vehicle: Klucel (hydroxypropylcellulose) (HPC) 87 % of control

CC1(C)N=C(N)N=C(N)N1c1ccc(CCCCc2ccc(Cl)cc2Cl)cc1
inactive: dose: 5.0 mg/kg/injection, schedule: Q01DX001 (ip), vehicle: saline 88 % of control | dose: 10.0 mg/kg/injection, schedule: Q01DX001 (ip), vehicle: saline 92 % of control | dose: 20.0 mg/kg/injection, schedule: Q01DX001 (ip), vehicle: saline 103 % of control

CCCCCC1(C)OCC(C)(C)N1O (configuration not stated)
inactive: [4] 104 % of control | [5] 102 % of control | [6] 111 % of control

CS(=O)(=O)c1nc2ccc([N+](=O)[O-])cc2s1
inactive: dose: 25.0 mg/kg/injection, schedule: Q04DX002 (ip), vehicle: saline 107 % of control | dose: 50.0 mg/kg/injection, schedule: Q04DX002 (ip), vehicle: saline 104 % of control | dose: 100.0 mg/kg/injection, schedule: Q04DX002 (ip), vehicle: saline 100 % of control

O=C(O)CCCc1ccc2ccccc2n1
inactive: dose: 50.0 mg/kg/injection, schedule: Q01DX001 (ip), vehicle: alkali diluted with saline 101 % of control | dose: 100.0 mg/kg/injection, schedule: Q01DX001 (ip), vehicle: alkali diluted with saline 103 % of control | dose: 200.0 mg/kg/injection, schedule: Q01DX001 (ip), vehicle: alkali diluted with saline 97 % of control | dose: 400.0 mg/kg/injection, schedule: Q01DX001 (ip), vehicle: alkali diluted with saline 103 % of control

COP(=O)(OC)OCc1cnc(SC)nc1N
inactive: dose: 25.0 mg/kg/injection, schedule: Q01DX009 (ip), vehicle: saline 100 % of control | dose: 25.0 mg/kg/injection, schedule: Q04DX003 (ip), vehicle: saline 100 % of control | dose: 50.0 mg/kg/injection, schedule: Q01DX009 (ip), vehicle: saline 102 % of control | dose: 50.0 mg/kg/injection, schedule: Q04DX003 (ip), vehicle: saline 105 % of control | [11] 98 % of control | [9] 101 % of control and 102 % of control

CCOC(=O)c1sc2ccc([N+](=O)[O-])cc2c1C
inactive: [4] 93 % of control | [5] 95 % of control | [6] 104 % of control

Cc1ccc(-c2ccc(C)s2)s1
inactive: dose: 50.0 mg/kg/injection, schedule: Q01DX009 (ip), vehicle: acetone 95 % of control | dose: 100.0 mg/kg/injection, schedule: Q01DX009 (ip), vehicle: acetone 90 % of control | [9] 96 % of control | dose: 200.0 mg/kg/injection, schedule: Q01DX009 (ip), vehicle: acetone 90 % of control | [10] 93 % of control | [12] 100 % of control

COC1=CC(=O)C(C2CC(=O)c3c(O)cc(OC4OC(COC5OC(C)C(O)C(O)C5O)C(O)C(O)C4O)cc3O2)=CC1=O (configuration not stated)
inactive: [11] 95 % of control | [1] 103 % of control | [13] 97 % of control | [2] 108 % of control | [14] 88 % of control | [3] 101 % of control

Cc1nc(=O)ccn1Cc1ccccc1
inactive: [9] 101 % of control | [10] 101 % of control | [12] 96 % of control

O=C(O)CCN1C(=O)CCC1=O
inactive: [11] 91 % of control | dose: 100.0 mg/kg/injection, schedule: Q04DX003 (ip), vehicle: saline sonified 105 % of control | [13] 94 % of control | dose: 200.0 mg/kg/injection, schedule: Q04DX003 (ip), vehicle: saline sonified 92 % of control | [14] 105 % of control | dose: 400.0 mg/kg/injection, schedule: Q04DX003 (ip), vehicle: saline sonified 95 % of control

O=C(NNc1nc(-c2ccccc2)nc(-c2ccccc2)n1)c1ccccc1
inactive: [4] 95 % of control | [5] 96 % of control | [6] 89 % of control

Nc1c2ccccc2cc2ccccc12
inactive: [7] 91 % of control | [8] 97 % of control | [1] 96 % of control and 112 % of control | [15] 110 % of control | [2] 91 % of control and 97 % of control | [3] 88 % of control

COc1ccccc1-n1c(O)c(N=Nc2ccc(Cl)cc2)c(=O)n(-c2ccc(C)cc2)c1=S
inactive: dose: 100.0 mg/kg/injection, schedule: Q01DX001 (ip), vehicle: Klucel (hydroxypropylcellulose) (HPC) 98 % of control | dose: 200.0 mg/kg/injection, schedule: Q01DX001 (ip), vehicle: Klucel (hydroxypropylcellulose) (HPC) 96 % of control | dose: 400.0 mg/kg/injection, schedule: Q01DX001 (ip), vehicle: Klucel (hydroxypropylcellulose) (HPC) 105 % of control

N#Cc1ccc(CC(O)(c2ccccc2)c2ccccc2)cc1
inactive: dose: 50.0 mg/kg/injection, schedule: Q01DX001 (ip), vehicle: carboxymethylcellulose (CMC) 106 % of control | [16] 101 % of control | [17] 98 % of control | [18] 89 % of control

COc1cc2c(cc1OC)C1CCc3cc(OC)c(OC)cc3C1N=C2 (configuration not stated)
inactive: dose: 80.0 mg/kg/injection, schedule: Q01DX009 (ip), vehicle: saline 102 % of control | dose: 120.0 mg/kg/injection, schedule: Q01DX009 (ip), vehicle: saline 93 % of control | dose: 240.0 mg/kg/injection, schedule: Q01DX009 (ip), vehicle: saline 93 % of control | dose: 360.0 mg/kg/injection, schedule: Q01DX009 (ip), vehicle: saline 93 % of control

Brc1ccc(N=C2NN=CC2(c2ccccc2)c2ccccc2)cc1
inactive: [16] 94 % of control | [17] 88 % of control | [18] 88 % of control

Cc1ccc(CCl)cc1
inactive: [8] 102 % of control | [1] 100 % of control | [15] 102 % of control | [2] 104 % of control | [3] 102 % of control
